Results on four compounds are retold here after the SangsterLogP compilation.

Data set [1] is described as follows: method code SF-HPLC, from DOI: 10.1002/jps.2600830309, PMID: 8207673. The following applies: pH 7.5.

Structures are written as SMILES.

Take `CCc1cc(Cl)c(O)c(C(=O)NC[C@@H]2CCCN2CCF)c1OC`: the logD (pH 7.5) is 4.71.
Still for that read-out and setting: for `COc1cc(Br)cc(C(=O)NC[C@@H]2CCCN2CCF)c1OC` the value was 3.22.
For the compound `CCOc1ccc(I)c(O)c1C(=O)NC[C@@H]1CCCN1CC`, the logD in data set [1] was 2.84.
In turn, `CCOc1c(OC)cc(I)c(O)c1C(=O)NC[C@@H]1CCCN1CC` showed a logD (pH 7.4) of 2.52.

By logD is commonly meant lipophilicity at a set pH, counting ionised and neutral species.
